Measured values as given in patent US20250144094A1 (Erasca, Inc., priority 2021, published 2025).

Molecular target: Recombinant human ULK1 (1-649) (Homo sapiens (Human), UniProt O75385)
Assay: ULK1 ADP Glo kinase activity assay, new method (ULKtide peptide substrate)
Details: 25° C., 40 minutes, read-out: ULK1 biochemical IC50
Procedure, shortened: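 GST-tagged human ULK1 (1-649) from Sf9 cells was reacted with ULKtide peptide and ATP for 40 min at 25 °C across 12-point compound dilutions from 10 μM. ADP formed was quantified by ADP-Glo luminescence; IC50 came from four-parameter fits relative to DMSO controls.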

Recombinant human ULK1 (1-649), sequence (O75385 1-649): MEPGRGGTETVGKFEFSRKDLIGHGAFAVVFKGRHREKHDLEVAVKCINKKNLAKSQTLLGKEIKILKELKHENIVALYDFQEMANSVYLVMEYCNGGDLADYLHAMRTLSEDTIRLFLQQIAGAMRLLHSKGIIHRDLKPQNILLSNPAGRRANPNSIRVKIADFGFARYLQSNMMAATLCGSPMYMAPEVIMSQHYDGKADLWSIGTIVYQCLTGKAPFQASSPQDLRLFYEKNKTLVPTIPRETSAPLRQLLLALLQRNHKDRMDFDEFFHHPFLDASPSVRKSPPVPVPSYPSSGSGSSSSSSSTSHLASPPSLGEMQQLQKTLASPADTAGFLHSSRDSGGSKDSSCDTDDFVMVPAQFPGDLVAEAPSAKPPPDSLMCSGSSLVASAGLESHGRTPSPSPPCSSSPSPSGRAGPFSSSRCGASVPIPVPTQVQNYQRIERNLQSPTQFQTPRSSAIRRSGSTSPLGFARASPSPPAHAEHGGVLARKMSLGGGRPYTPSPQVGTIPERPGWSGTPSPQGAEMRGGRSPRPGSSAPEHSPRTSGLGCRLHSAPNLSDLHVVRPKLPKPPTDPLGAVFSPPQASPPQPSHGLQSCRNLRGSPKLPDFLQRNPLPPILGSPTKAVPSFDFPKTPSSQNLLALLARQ

SMILES | IC50
CCc1cc(N2CCN(C)[C@@H](C)C2)ccc1Nc1ncc(C(F)(F)F)c(-c2cc3c(s2)C(=O)N(C2COC2)CCS3(=O)=O)n1 [Example 362, (S)-7-(2-((4-(3,4-dimethylpiperazin-1-yl)-2-ethylphenyl)amino)-5-(trifluoromethyl)pyrimidin-4-yl)-4-(oxetan-3-yl)-3,4-dihydrothieno[2,3-f][1,4]thiazepin-5(2H)-one 1,1-dioxide] | ≤ 5 nM
CCc1cc(N2C[C@H](C)N(C)[C@@H](C)C2)ccc1Nc1ncc(C(F)(F)F)c(-c2cc3c(s2)C(=O)N(C2CC2)CCS3(=O)=O)n1 [Example 363, 4-cyclopropyl-7-(2-((2-ethyl-4-((3S,5S)-3,4,5-trimethylpiperazin-1-yl)phenyl)amino)-5-(trifluoromethyl)pyrimidin-4-yl)-3,4-dihydrothieno[2,3-f][1,4]thiazepin-5(2H)-one 1,1-dioxide] | ≤ 5 nM
CCc1cc(N2CCNCC2)ccc1Nc1ncc(C(F)(F)F)c(-c2cc3c(s2)C(=O)N(C2COC2)CCS3(=O)=O)n1 [Example 364, 7-(2-((2-ethyl-4-(piperazin-1-yl)phenyl)amino)-5-(trifluoromethyl)pyrimidin-4-yl)-4-(oxetan-3-yl)-3,4-dihydrothieno[2,3-f][1,4]thiazepin-5(2H)-one 1,1-dioxide] | ≤ 5 nM
CCc1cc(N2C[C@@H](C)N[C@@H](C)C2)ccc1Nc1ncc(C(F)(F)F)c(-c2cc3c(s2)C(=O)N(C2CC2)CCS3(=O)=O)n1 [Example 366, 4-cyclopropyl-7-(2-((4-((3S,5R)-3,5-dimethylpiperazin-1-yl)-2-ethylphenyl)amino)-5-(trifluoromethyl)pyrimidin-4-yl)-3,4-dihydrothieno[2,3-f][1,4]thiazepin-5(2H)-one 1,1-dioxide] | ≤ 5 nM
CCc1cc(N2C[C@@H](C)N(C)[C@@H](C)C2)ccc1Nc1ncc(C(F)(F)F)c(-c2cc3c(s2)C(=O)N(C2CC2)CCS3(=O)=O)n1 [Example 367, 4-cyclopropyl-7-(2-((2-ethyl-4-((3S,5R)-3,4,5-trimethylpiperazin-1-yl)phenyl)amino)-5-(trifluoromethyl)pyrimidin-4-yl)-3,4-dihydrothieno[2,3-f][1,4]thiazepin-5(2H)-one 1,1-dioxide] | ≤ 5 nM
CCc1cc(N2C[C@@H](C)N[C@@H](C)C2)ccc1Nc1ncc(C(F)(F)F)c(-c2cc3c(s2)C(=O)N(C2COC2)CCS3(=O)=O)n1 [Example 368, 7-(2-((4-((3S,5R)-3,5-dimethylpiperazin-1-yl)-2-ethylphenyl)amino)-5-(trifluoromethyl)pyrimidin-4-yl)-4-(oxetan-3-yl)-3,4-dihydrothieno[2,3-f][1,4]thiazepin-5(2H)-one 1,1-dioxide] | ≤ 5 nM
CCc1cc(N2C[C@@H](C)N(C)[C@@H](C)C2)ccc1Nc1ncc(C(F)(F)F)c(-c2cc3c(s2)C(=O)N(C2COC2)CCS3(=O)=O)n1 [Example 369, 7-(2-((2-ethyl-4-((3S,5R)-3,4,5-trimethylpiperazin-1-yl)phenyl)amino)-5-(trifluoromethyl)pyrimidin-4-yl)-4-(oxetan-3-yl)-3,4-dihydrothieno[2,3-f][1,4]thiazepin-5(2H)-one 1,1-dioxide] | ≤ 5 nM
CCc1cc(N2C[C@H](C)N[C@@H](C)C2)ccc1Nc1ncc(C(F)(F)F)c(-c2cc3c(s2)C(=O)N(C2COC2)CCS3(=O)=O)n1 [Example 370, 7-(2-((4-((3S,5S)-3,5-dimethylpiperazin-1-yl)-2-ethylphenyl)amino)-5-(trifluoromethyl)pyrimidin-4-yl)-4-(oxetan-3-yl)-3,4-dihydrothieno[2,3-f][1,4]thiazepin-5(2H)-one 1,1-dioxide] | ≤ 5 nM
NC(=O)[C@@H]1CN(c2ccc(Nc3ncc(C(F)(F)F)c(-c4cc5c(s4)C(=O)N(C4COC4)CCS5(=O)=O)n3)c(C3CC3)c2)CCN1 [Example 371, (S)-4-(3-cyclopropyl-4-((4-(4-(oxetan-3-yl)-1,1-dioxido-5-oxo-2,3,4,5-tetrahydrothieno[2,3-f][1,4]thiazepin-7-yl)-5-(trifluoromethyl)pyrimidin-2-yl)amino)phenyl)piperazine-2-carboxamide] | ≤ 5 nM
CN1CCN(c2ccc(Nc3ncc(C(F)(F)F)c(-c4cc5c(s4)C(=O)N(C4COC4)CCS5(=O)=O)n3)c(C3CC3)c2)C[C@H]1C(N)=O [Example 372, (S)-4-(3-Cyclopropyl-4-((4-(4-(oxetan-3-yl)-1,1-dioxido-5-oxo-2,3,4,5-tetrahydrothieno[2,3-f][1,4]thiazepin-7-yl)-5-(trifluoromethyl)pyrimidin-2-yl)amino)phenyl)-1-methylpiperazine-2-carboxamide] | ≤ 5 nM
CNC(=O)[C@@H]1CN(c2ccc(Nc3ncc(C(F)(F)F)c(-c4cc5c(s4)C(=O)N(C4COC4)CCS5(=O)=O)n3)c(C3CC3)c2)CCN1 [Example 373, (S)-4-(3-cyclopropyl-4-((4-(4-(oxetan-3-yl)-1,1-dioxido-5-oxo-2,3,4,5-tetrahydrothieno[2,3-f][1,4]thiazepin-7-yl)-5-(trifluoromethyl)pyrimidin-2-yl)amino)phenyl)-N-methylpiperazine-2-carboxamide] | ≤ 5 nM
C[C@@H]1CN(c2cc(C3CC3)c(Nc3ncc(C(F)(F)F)c(-c4cc5c(s4)C(=O)N(C4COC4)CCS5(=O)=O)n3)cn2)CCN1 [Example 374, (R)-7-(2-((4-cyclopropyl-6-(3-methylpiperazin-1-yl)pyridin-3-yl)amino)-5-(trifluoromethyl)pyrimidin-4-yl)-4-(oxetan-3-yl)-3,4-dihydrothieno[2,3-f][1,4]thiazepin-5(2H)-one 1,1-dioxide] | ≤ 5 nM
C[C@@H]1CN(c2ccc(Nc3ncc(C(F)(F)F)c(-c4cc5c(s4)C(=O)N(C4COC4)CCS5(=O)=O)n3)c(C3CC3)n2)CCN1 [Example 375, (R)-7-(2-((2-cyclopropyl-6-(3-methylpiperazin-1-yl)pyridin-3-yl)amino)-5-(trifluoromethyl)pyrimidin-4-yl)-4-(oxetan-3-yl)-3,4-dihydrothieno[2,3-f][1,4]thiazepin-5(2H)-one 1,1-dioxide] | ≤ 5 nM
C[C@@H]1CN(c2ccc(Nc3ncc(C(F)(F)F)c(-c4cc5c(s4)C(=O)N(C4COC4)CCS5(=O)=O)n3)c(C3CC3)n2)CCN1C [Example 376, (R)-7-(2-((2-cyclopropyl-6-(3,4-dimethylpiperazin-1-yl)pyridin-3-yl)amino)-5-(trifluoromethyl)pyrimidin-4-yl)-4-(oxetan-3-yl)-3,4-dihydrothieno[2,3-f][1,4]thiazepin-5(2H)-one 1,1-dioxide] | ≤ 5 nM
O=C1c2sc(-c3nc(Nc4ccc(N5CC6(CNC6)C5)cc4C4CC4)ncc3C(F)(F)F)cc2S(=O)(=O)CCN1C1COC1 [Example 377, 7-(2-((2-Cyclopropyl-4-(2,6-diazaspiro[3.3]heptan-2-yl)phenyl)amino)-5-(trifluoromethyl)pyrimidin-4-yl)-4-(oxetan-3-yl)-3,4-dihydrothieno[2,3-f][1,4]thiazepin-5(2H)-one 1,1-dioxide] | ≤ 5 nM
C[C@@H]1CN(c2ccc(Nc3ncc(C(F)(F)F)c(-c4cc5c(s4)C(=O)N(C)CCS5(=O)=O)n3)c(C3CC3)c2)CCN1C [Example 378, (R)-7-(2-((2-cyclopropyl-4-(3,4-dimethylpiperazin-1-yl)phenyl)amino)-5-(trifluoromethyl)pyrimidin-4-yl)-4-methyl-3,4-dihydrothieno[2,3-f][1,4]thiazepin-5(2H)-one 1,1-dioxide] | ≤ 5 nM
